Data from PubChem BioAssay (NCI).
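Each compound was tested at five concentrations against cells in 96-well plates for 48 hours. GI50 marks 50% less growth. TGI marks complete inhibition of growth.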

Experiments:
Assay in all cases: DTP human tumour cell line panel, 48 h
SNB-19 CNS = tested on: SNB-19 CNS
LOX IMVI melanoma = tested on: LOX IMVI melanoma
MDA-MB-435 = tested on: MDA-MB-435
OVCAR-8 ovarian = tested on: OVCAR-8 ovarian
MOLT-4 leukemia = tested on: MOLT-4 leukemia
MCF7 breast = tested on: MCF7 breast
UACC-257 melanoma = tested on: UACC-257 melanoma
CCRF-CEM leukemia = tested on: CCRF-CEM leukemia
CAKI-1 renal = tested on: CAKI-1 renal
HCT-15 colon = tested on: HCT-15 colon
SK-MEL-28 melanoma = tested on: SK-MEL-28 melanoma
SW-620 colon = tested on: SW-620 colon
A498 renal = tested on: A498 renal
M14 melanoma = tested on: M14 melanoma
RXF 393 renal = tested on: RXF 393 renal
OVCAR-3 ovarian = tested on: OVCAR-3 ovarian
HT29 colon = tested on: HT29 colon
786-0 renal = tested on: 786-0 renal
HOP-92 NSCLC = tested on: HOP-92 NSCLC
NCI-H522 lung = tested on: NCI-H522 lung
KM12 colon = tested on: KM12 colon
RPMI-8226 leukemia = tested on: RPMI-8226 leukemia
UACC-62 melanoma = tested on: UACC-62 melanoma
OVCAR-4 ovarian = tested on: OVCAR-4 ovarian
SR leukemia = tested on: SR leukemia
OVCAR-5 ovarian = tested on: OVCAR-5 ovarian
SNB-75 CNS = tested on: SNB-75 CNS
COLO 205 colon = tested on: COLO 205 colon
NCI/ADR-RES ovarian = tested on: NCI/ADR-RES ovarian
BT-549 breast = tested on: BT-549 breast
SF-539 CNS = tested on: SF-539 CNS
HL-60(TB) leukemia = tested on: HL-60(TB) leukemia
IGROV1 ovarian = tested on: IGROV1 ovarian
SN12C renal = tested on: SN12C renal
SK-OV-3 ovarian = tested on: SK-OV-3 ovarian
ACHN renal = tested on: ACHN renal
SF-295 CNS = tested on: SF-295 CNS
HCC-2998 colon = tested on: HCC-2998 colon
A549 NSCLC = tested on: A549 NSCLC
SK-MEL-5 melanoma = tested on: SK-MEL-5 melanoma
SF-268 CNS = tested on: SF-268 CNS
SK-MEL-2 melanoma = tested on: SK-MEL-2 melanoma
T-47D breast = tested on: T-47D breast
NCI-H23 lung = tested on: NCI-H23 lung
UO-31 renal = tested on: UO-31 renal
NCI-H460 lung = tested on: NCI-H460 lung
HOP-62 NSCLC = tested on: HOP-62 NSCLC
PC-3 prostate = tested on: PC-3 prostate
DU-145 prostate = tested on: DU-145 prostate
NCI-H226 lung = tested on: NCI-H226 lung
EKVX NSCLC = tested on: EKVX NSCLC
HS 578T breast = tested on: HS 578T breast
U251 CNS = tested on: U251 CNS
MALME-3M melanoma = tested on: MALME-3M melanoma
MDA-MB-231 breast = tested on: MDA-MB-231 breast
HCT-116 colon = tested on: HCT-116 colon
K-562 leukemia = tested on: K-562 leukemia

Question: For `C#Cc1cccc(Nc2ncnc3ccc(-c4cnc(Cl)c(NS(C)(=O)=O)c4)cc23)c1`, which GI50 (SNB-19 CNS) is on record?
Answer: 374 nM

Question: What about the TGI (SNB-19 CNS) of the same compound?
Answer: 5700 nM

Question: And the GI50 (LOX IMVI melanoma)?
Answer: 281 nM

Question: What about the TGI (LOX IMVI melanoma) of the same compound?
Answer: 1800 nM

Question: What about the GI50 (MDA-MB-435) of the same compound?
Answer: 383 nM

Question: And the TGI (MDA-MB-435)?
Answer: 2340 nM

Question: And the GI50 (OVCAR-8 ovarian)?
Answer: 825 nM

Question: What about the TGI (OVCAR-8 ovarian) of the same compound?
Answer: > 33500 nM

Question: What about the GI50 (MOLT-4 leukemia) of the same compound?
Answer: 244 nM

Question: What about the TGI (MOLT-4 leukemia) of the same compound?
Answer: 1530 nM

Question: And the GI50 (MCF7 breast)?
Answer: 104 nM

Question: What about the TGI (MCF7 breast) of the same compound?
Answer: 2570 nM

Question: And the GI50 (UACC-257 melanoma)?
Answer: 307 nM

Question: And the TGI (UACC-257 melanoma)?
Answer: 6570 nM

Question: And the GI50 (CCRF-CEM leukemia)?
Answer: 236 nM

Question: And the TGI (CCRF-CEM leukemia)?
Answer: 28800 nM

Question: What about the GI50 (CAKI-1 renal) of the same compound?
Answer: 164 nM

Question: What about the TGI (CAKI-1 renal) of the same compound?
Answer: 1820 nM

Question: What about the GI50 (HCT-15 colon) of the same compound?
Answer: 295 nM

Question: And the TGI (HCT-15 colon)?
Answer: 1970 nM

Question: What about the GI50 (SK-MEL-28 melanoma) of the same compound?
Answer: 182 nM

Question: What about the TGI (SK-MEL-28 melanoma) of the same compound?
Answer: 1930 nM

Question: And the GI50 (SW-620 colon)?
Answer: 467 nM

Question: What about the TGI (SW-620 colon) of the same compound?
Answer: 5650 nM

Question: And the GI50 (A498 renal)?
Answer: 33.4 nM

Question: And the TGI (A498 renal)?
Answer: 254 nM

Question: What about the GI50 (M14 melanoma) of the same compound?
Answer: 368 nM

Question: And the TGI (M14 melanoma)?
Answer: 2410 nM

Question: And the GI50 (RXF 393 renal)?
Answer: 218 nM

Question: What about the TGI (RXF 393 renal) of the same compound?
Answer: 996 nM

Question: What about the GI50 (OVCAR-3 ovarian) of the same compound?
Answer: 197 nM

Question: What about the TGI (OVCAR-3 ovarian) of the same compound?
Answer: 1290 nM

Question: What about the GI50 (HT29 colon) of the same compound?
Answer: 404 nM

Question: And the GI50 (786-0 renal)?
Answer: 343 nM

Question: What about the TGI (786-0 renal) of the same compound?
Answer: 4550 nM

Question: What about the GI50 (HOP-92 NSCLC) of the same compound?
Answer: 78 nM

Question: What about the TGI (HOP-92 NSCLC) of the same compound?
Answer: 835 nM

Question: And the GI50 (NCI-H522 lung)?
Answer: 332 nM

Question: And the TGI (NCI-H522 lung)?
Answer: 4330 nM

Question: And the GI50 (KM12 colon)?
Answer: 891 nM

Question: And the TGI (KM12 colon)?
Answer: 2550 nM

Question: What about the GI50 (RPMI-8226 leukemia) of the same compound?
Answer: 412 nM

Question: And the TGI (RPMI-8226 leukemia)?
Answer: 2660 nM

Question: What about the GI50 (UACC-62 melanoma) of the same compound?
Answer: 149 nM

Question: What about the TGI (UACC-62 melanoma) of the same compound?
Answer: 1070 nM

Question: And the GI50 (OVCAR-4 ovarian)?
Answer: 762 nM

Question: And the TGI (OVCAR-4 ovarian)?
Answer: 8330 nM

Question: What about the GI50 (SR leukemia) of the same compound?
Answer: 338 nM

Question: What about the TGI (SR leukemia) of the same compound?
Answer: 6350 nM

Question: And the GI50 (OVCAR-5 ovarian)?
Answer: 329 nM

Question: And the TGI (OVCAR-5 ovarian)?
Answer: 2730 nM

Question: What about the GI50 (SNB-75 CNS) of the same compound?
Answer: 10.1 nM

Question: What about the TGI (SNB-75 CNS) of the same compound?
Answer: 125 nM

Question: What about the GI50 (COLO 205 colon) of the same compound?
Answer: 648 nM

Question: What about the TGI (COLO 205 colon) of the same compound?
Answer: 2120 nM

Question: And the GI50 (NCI/ADR-RES ovarian)?
Answer: 1240 nM

Question: What about the TGI (NCI/ADR-RES ovarian) of the same compound?
Answer: 10000 nM

Question: What about the GI50 (BT-549 breast) of the same compound?
Answer: 183 nM

Question: And the TGI (BT-549 breast)?
Answer: 1410 nM

Question: And the GI50 (SF-539 CNS)?
Answer: 302 nM

Question: What about the TGI (SF-539 CNS) of the same compound?
Answer: 1680 nM

Question: What about the GI50 (HL-60(TB) leukemia) of the same compound?
Answer: 207 nM

Question: And the TGI (HL-60(TB) leukemia)?
Answer: 1270 nM

Question: And the GI50 (IGROV1 ovarian)?
Answer: 75 nM

Question: What about the TGI (IGROV1 ovarian) of the same compound?
Answer: 402 nM

Question: And the GI50 (SN12C renal)?
Answer: 292 nM

Question: And the TGI (SN12C renal)?
Answer: > 54000 nM

Question: And the GI50 (SK-OV-3 ovarian)?
Answer: 206 nM

Question: And the TGI (SK-OV-3 ovarian)?
Answer: 1380 nM

Question: And the GI50 (ACHN renal)?
Answer: 442 nM

Question: What about the TGI (ACHN renal) of the same compound?
Answer: > 100000 nM

Question: What about the GI50 (SF-295 CNS) of the same compound?
Answer: 376 nM

Question: What about the TGI (SF-295 CNS) of the same compound?
Answer: 2170 nM

Question: And the GI50 (HCC-2998 colon)?
Answer: 416 nM

Question: And the TGI (HCC-2998 colon)?
Answer: 1780 nM

Question: What about the GI50 (A549 NSCLC) of the same compound?
Answer: 725 nM

Question: And the TGI (A549 NSCLC)?
Answer: 4830 nM

Question: And the GI50 (SK-MEL-5 melanoma)?
Answer: 243 nM

Question: What about the TGI (SK-MEL-5 melanoma) of the same compound?
Answer: 704 nM

Question: And the GI50 (SF-268 CNS)?
Answer: 155 nM

Question: What about the TGI (SF-268 CNS) of the same compound?
Answer: 1670 nM

Question: And the GI50 (SK-MEL-2 melanoma)?
Answer: 296 nM

Question: What about the TGI (SK-MEL-2 melanoma) of the same compound?
Answer: 1620 nM

Question: And the GI50 (T-47D breast)?
Answer: 46 nM

Question: What about the TGI (T-47D breast) of the same compound?
Answer: 1200 nM

Question: What about the GI50 (NCI-H23 lung) of the same compound?
Answer: 385 nM

Question: And the TGI (NCI-H23 lung)?
Answer: 8030 nM

Question: What about the GI50 (UO-31 renal) of the same compound?
Answer: 111 nM

Question: And the TGI (UO-31 renal)?
Answer: 1410 nM

Question: What about the GI50 (NCI-H460 lung) of the same compound?
Answer: 572 nM

Question: And the TGI (NCI-H460 lung)?
Answer: 11700 nM

Question: And the GI50 (HOP-62 NSCLC)?
Answer: 292 nM

Question: And the TGI (HOP-62 NSCLC)?
Answer: 10700 nM

Question: And the GI50 (PC-3 prostate)?
Answer: 297 nM

Question: What about the TGI (PC-3 prostate) of the same compound?
Answer: 2820 nM

Question: And the GI50 (DU-145 prostate)?
Answer: 434 nM

Question: And the TGI (DU-145 prostate)?
Answer: 6990 nM

Question: And the GI50 (NCI-H226 lung)?
Answer: 564 nM

Question: And the TGI (NCI-H226 lung)?
Answer: 4300 nM

Question: What about the GI50 (EKVX NSCLC) of the same compound?
Answer: 253 nM

Question: What about the TGI (EKVX NSCLC) of the same compound?
Answer: 1870 nM

Question: And the GI50 (HS 578T breast)?
Answer: 81.5 nM

Question: And the TGI (HS 578T breast)?
Answer: 754 nM

Question: And the GI50 (U251 CNS)?
Answer: 284 nM

Question: What about the TGI (U251 CNS) of the same compound?
Answer: 2680 nM

Question: What about the GI50 (MALME-3M melanoma) of the same compound?
Answer: 92.4 nM

Question: And the TGI (MALME-3M melanoma)?
Answer: 862 nM

Question: What about the GI50 (MDA-MB-231 breast) of the same compound?
Answer: 440 nM

Question: And the TGI (MDA-MB-231 breast)?
Answer: 3660 nM

Question: What about the GI50 (HCT-116 colon) of the same compound?
Answer: 400 nM

Question: And the TGI (HCT-116 colon)?
Answer: 3150 nM

Question: What about the GI50 (K-562 leukemia) of the same compound?
Answer: 682 nM

Question: What about the TGI (K-562 leukemia) of the same compound?
Answer: > 100000 nM
